Patent US20260042745A1, “PYRROLIDINE-2-CARBOXAMIDE DERIVATIVES AS PROSTAGLANDIN E2 RECEPTOR 4 (EP4) AGONISTS FOR THE TREATMENT OF GASTROINTESTINAL AND PULMONARY DISEASES” (NXERA PHARMA UK LIMITED, priority 2022, published 2026)

Assays:
[1] = molecular target: T1, human EP4 (Homo sapiens, UniProt P35408); experiment: cAMP Gs functional assay (HTRF cAMP dynamic-2) in EP4-transfected HEK293 cells; type: cell-based; settings: HEK293 cells transfected with EP4 BacMam virus; for EC50: 30 min at 37° C., HTRF cAMP, read-out: cAMP human EP4 pEC50 (converted); for cAMP human EP4 Emax: positive control PGE2
T1 construct: expressed in transfected cells; host or cells: HEK293 cells transduced with EP4 BacMam baculovirus
Description: Cloning, Baculovirus generation, large scale infection of HEK293 cells and membrane preparation: Human prostaglandin E2 receptor 4 (EP4) was cloned into pBacMam expression vector (GeneScript, UK). Transposition of EP4 DNA was performed using Invitrogen's Bac-to-Bac Baculovirus Expression Systems. P0 baculovirus was generated by transfecting SF9 Cells with bacmid DNA using Cellfectin II transfection reagent (ThermoFisher Scientific, UK). Following P0 generation P1 virus was then generated ready for large scale infection and membrane preparation. HEK293 cells were grown in DMEM (ThermoFisher Scientific, UK), supplemented with 10% heat inactivated fetal bovine serum (FBS). Cells were infected at a seeding density of 3.5 million cells/mL in 500 cm^3 flasks at 5% v/v EP4 Bacman. Expression was carried out over a 36 hour period at 37° C. with 5% CO2. The cells were removed using PBS and a cell scrapper. The cell culture was centrifuged at 2500 RPM for 10 mins at 4° C. The supernatant was then poured off and the pellet stored at −80° C. The pellet was defrosted and re-suspended in 15 mL of homogenising buffer (20 mM HEPES, 10 mM EDTA, pH 7.4). Then homogenised in mechanical homogeniser (VMR) for 10 seconds. The membrane was centrifuged in centrifuge tubes at 40,000 g for 15 mins at 4° C. The supernatant was poured away and re-suspended in 15 mL of homogenising buffer and homogenised for 20 seconds. The membrane was then centrifuged at 40,000 g for 45 mins at 4° C. The membrane was then re-suspended in 3 mL of storage buffer (20 mM HEPES, 0.1 mM EDTA, pH 7.4) mixing well. The resulting membranes were then stored at −80° C.
cAMP Gs Functional Assay: cAMP production following EP4 receptor activation was determined using the Homogeneous Time-Resolved Fluorescence (HTRF) cAMP dynamic-2 assay (Cisbio, France). HEK293 cells were transfected using a 0.5% EP4 Bacman virus for 36 hours, before dissociating the cells, and freezing at −150° C.
On the day of testing, increasing concentration of test compounds, alongside positive controls ([…] PGE2 (Tocris, Abingdon, UK)) and negative control (DMSO (Sigma-Aldrich, UK) were added to a ProxiPlate-384 Plus, White 384-shallow well Mircoplate, (PerkinElmer, USA) using the ECHO dispense.
Cells were defrosted in a water bath and resuspended in DMEM supplemented with 10% FBS before centrifuging at 1200 RPM for 5 mins to form a pellet. The pellet was resuspended in assay buffer (DMEM+0.5 mM IBMX (Tocris, Abingdon, UK)) to 0.5×10^6 cells/mL. Cell suspension, for a final assay concentration of 5000 cell/well was added using the multidrop to the pre-dispensed assay plate. The plate was then incubated at 37° C. for 30 mins, with 5% CO2. The cAMP production was determined as manufacturer's instructions, before plates were read on a PheraStar fluorescence plate reader (BMG LabTech, Germany).

[2] = Unidirectional Caco-2 cell permeability assay; type: in vitro ADME; settings: human, apical pH 6.5, basolateral pH 7.4, 1 hour, 37° C., n=2
Description: Caco-2 cells (ECACC) were seeded onto 24-well Transwell plates at 2×10^5 cells per well and used in confluent monolayers after a 21 day culture at 37° C. under 500 CO2. Test compounds were incubated at 10 μM, 0.2% DMSO final, n=2 in assay buffer (Hanks balanced salt solution supplemented with 25 mM HEPES, adjusted to pH 6.5). Hanks balanced salt solution supplemented with 25 mM HEPES, adjusted to pH 7.4 (0.2% DMSO final) was used for the basolateral chamber (as receiver).
Incubations were performed at 37° C., with samples removed from both donor and acceptor chambers at T=0 and 1 hour and compound analysed by mass spectrometry (LC-MS/MS) including an analytical internal standard ([…] carbamazepine).
Apparent permeability (Papp) values are shown in Table 3 and were determined from the relationship:
Where V is the volume of each Transwell compartment (apical 125 μL, basolateral 600 μL), and concentrations are the relative MS responses for compound (normalized to internal standard) in the donor chamber before incubation and acceptor chamber at the end of the incubation Area=area of cells exposed for drug transfer (0.33 cm^2).
Lucifer Yellow (LY) was added to the apical buffer in all wells to assess viability of the cell layer. As LY cannot freely permeate lipophilic barriers, a high degree of LY transport indicates poor integrity of the cell layer and wells with a LY Papp>10×10^−6 cm/s were rejected.
Compound recovery from the wells was determined from MS responses (normalized to internal standard) in donor and acceptor chambers at the end of incubation compared to response in the donor chamber pre-incubation.

T1 sequence (P35408 whole entry): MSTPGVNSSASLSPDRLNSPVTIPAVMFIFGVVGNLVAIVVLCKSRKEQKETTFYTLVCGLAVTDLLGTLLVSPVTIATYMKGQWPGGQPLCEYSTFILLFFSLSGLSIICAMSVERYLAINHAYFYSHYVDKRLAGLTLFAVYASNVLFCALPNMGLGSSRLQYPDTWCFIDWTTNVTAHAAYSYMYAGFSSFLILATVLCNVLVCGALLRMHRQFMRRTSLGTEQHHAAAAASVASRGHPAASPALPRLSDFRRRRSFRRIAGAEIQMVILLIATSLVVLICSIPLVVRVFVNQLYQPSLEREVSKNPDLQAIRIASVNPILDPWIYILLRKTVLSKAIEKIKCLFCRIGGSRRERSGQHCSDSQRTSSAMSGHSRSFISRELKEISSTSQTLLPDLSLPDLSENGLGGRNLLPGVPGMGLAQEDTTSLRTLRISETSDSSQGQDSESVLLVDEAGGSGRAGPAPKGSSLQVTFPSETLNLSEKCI

SMILES | EC50 [1] [nM] | cAMP human EP4 Emax [1] [%] | Papp A→B at 1 h, 10 μM [2] [×10⁻⁶ cm/s]
C[C@H](NC(=O)[C@H]1CCCN1Cc1cccc(-c2ccc(C(N)=O)cc2O)c1)c1ccc(C(=O)O)cc1 [Example 11, 4-((S)-1-((R)-1-((4′-carbamoyl-2′-hydroxy-[1,1′-biphenyl]-3-yl)methyl)pyrrolidine-2-carboxamido)ethyl)benzoic acid] | 20 | 92 | 0.18
Cc1cc(C(N)=O)ccc1-c1cccc(CN2C[C@H](O)C[C@@H]2C(=O)N[C@@H](C)c2ccc(C(=O)O)cc2)c1 [Example 6, 4-((S)-1-((2R,4R)-1-((4′-carbamoyl-2′-methyl-[1,1′-biphenyl]-3-yl)methyl)-4-hydroxypyrrolidine-2-carboxamido)ethyl)benzoic acid] | 501 | 91 | 0.85
C[C@H](NC(=O)[C@H]1CCCN1Cc1cccc(-c2ccc(O)cc2C#N)c1)c1ccc(C(=O)O)cc1 [Example 8, 4-((S)-1-((R)-1-((2′-cyano-4′-hydroxy-[1,1′-biphenyl]-3-yl)methyl)pyrrolidine-2-carboxamido)ethyl)benzoic acid] | 31.6 | 74 | 2.1
Cc1cc(S(N)(=O)=O)ccc1-c1cccc(CN2CCC[C@@H]2C(=O)NC2(c3ccc(C(=O)O)cc3)CC2)c1 [Example 30, (R)-4-(1-(1-((2′-methyl-4′-sulfamoyl-[1,1′-biphenyl]-3-yl)methyl)pyrrolidine-2-carboxamido)cyclopropyl)benzoic acid] | 0.501 | 99 | 0.29
Cc1cc(C(N)=O)ccc1-c1cc(CN2CCC[C@@H]2C(=O)N[C@@H](C)c2ccc(C(=O)O)cc2)ccc1O [Example 14] | 158 | 100 | 0.19
C[C@H](NC(=O)[C@H]1CCCN1Cc1cccc(-c2ccc(O)cc2)c1)c1ccc(C(=O)O)cc1 [Example 7, 4-((S)-1-((R)-1-((4′-hydroxy-[1,1′-biphenyl]-3-yl)methyl)pyrrolidine-2-carboxamido)ethyl)benzoic acid] | > 10000 |  | 7.71
Cc1cc(S(N)(=O)=O)ccc1-c1cccc(CN2CCC[C@@H]2C(=O)NCc2ccc(C(=O)O)c(O)c2)c1 [Example 16, (R)-2-hydroxy-4-((1-((2′-methyl-4′-sulfamoyl-[1,1′-biphenyl]-3-yl)methyl)pyrrolidine-2-carboxamido)methyl)benzoic acid] | 20 | 98 | 0.17

Second part, the molecule after the results:

EC50 [1] [nM] | cAMP human EP4 Emax [1] [%] | Papp A→B at 1 h, 10 μM [2] [×10⁻⁶ cm/s] | SMILES
0.631 | 98 | < 0.1 | Cc1cc(S(N)(=O)=O)ccc1-c1cc(O)cc(CN2CCC[C@@H]2C(=O)N[C@@H](C)c2ccc(C(=O)O)cc2)c1 [Example 20, 4-((S)-1-((R)-1-((5-hydroxy-2′-methyl-4′-sulfamoyl-[1,1′-biphenyl]-3-yl)methyl)pyrrolidine-2-carboxamido)ethyl)benzoic acid]
3.16 | 95 | 0.11 | Cc1cc(S(N)(=O)=O)ccc1-c1cccc(CN2CCC[C@@H]2C(=O)N[C@@H](C)c2ccc(C(=O)O)c(O)c2)c1 [Example 18, 2-hydroxy-4-((S)-1-((R)-1-((2′-methyl-4′-sulfamoyl-[1,1′-biphenyl]-3-yl)methyl)pyrrolidine-2-carboxamido)ethyl)benzoic acid]
6.31 | 91 | < 0.11 | Cc1cc(C(N)=O)ccc1-c1cccc(CN2CC3CC2(C(=O)NC2(c4ccc(C(=O)O)cc4)CC2)C3)c1 [Example 29, 4-(1-(2-((4′-carbamoyl-2′-methyl-[1,1′-biphenyl]-3-yl)methyl)-2-azabicyclo[2.1.1]hexane-1-carboxamido)cyclopropyl)benzoic acid]
63.1 | 80 | 0.36 | Cc1cc(O)ccc1-c1cccc(CN2C[C@H](O)C[C@@H]2C(=O)N[C@@H](C)c2ccc(C(=O)O)cc2)c1 [Example 5, 4-((S)-1-((2R,4R)-4-hydroxy-1-((4′-hydroxy-2′-methyl-[1,1′-biphenyl]-3-yl)methyl)pyrrolidine-2-carboxamido)ethyl)benzoic acid]
25.1 | 76 | < 0.12 | Cc1cc(C(N)=O)ccc1-c1cccc(CN2CC3CC2(C(=O)N[C@@H](C)c2ccc(C(=O)O)cc2)C3)c1 [Example 28, (S)-4-(1-(2-((4′-carbamoyl-2′-methyl-[1,1′-biphenyl]-3-yl)methyl)-2-azabicyclo[2.1.1]hexane-1-carboxamido)ethyl)benzoic acid]
2 | 81 | 14.5 | Cc1cc(O)ccc1-c1cccc(CN2CCC[C@@H]2C(=O)N[C@@H](C)c2ccc(C(=O)O)cc2)c1 [Example 1]
1.58 | 99 | 1.14 | Cc1cc(S(N)(=O)=O)ccc1-c1cccc(CN2CCC[C@@H]2C(=O)N[C@@H](C)c2ccc(C(=O)O)cc2)c1 [Example 2, 4-((S)-1-((R)-1-((2′-methyl-4′-sulfamoyl-[1,1′-biphenyl]-3-yl)methyl)pyrrolidine-2-carboxamido)ethyl)benzoic acid]
0.02 | 98 | 0.45 | Cc1cc(C(N)=O)ccc1-c1cccc(CN2CCC[C@@H]2C(=O)NC2(c3ccc(C(=O)O)cc3)CC2)c1 [Example 31, (R)-4-(1-(1-((4′-carbamoyl-2′-methyl-[1,1′-biphenyl]-3-yl)methyl)pyrrolidine-2-carboxamido)cyclopropyl)benzoic acid]
25.1 | 99 | 0.16 | Cc1cc(S(N)(=O)=O)ccc1-c1cncc(CN2CCC[C@@H]2C(=O)N[C@@H](C)c2ccc(C(=O)O)cc2)c1 [Example 24, 4-((S)-1-((R)-1-((5-(2-methyl-4-sulfamoylphenyl)pyridin-3-yl)methyl)pyrrolidine-2-carboxamido)ethyl)benzoic acid]
